Results published in article PMC6789111, “Crossing the blood-brain-barrier with nanoligand drug carriers self-assembled from a phage display peptide” (Nature Communications, 2019).
Peptide text beside a SMILES is read from it. * marks the point of attachment. 5FAM = O=C1OC2(c3ccc(O)cc3Oc3cc(O)ccc32)c2ccc(C(=O)*)cc21

Experiments:
[1] = mouse, in vivo, iv
Protocol: In some experiments, animals were transcardially perfused with 10 mL 0.9% (w/v) saline at a rate of 2 mL min^−1 through the left ventricle to remove the blood from the brain, followed by 20 mL 4% (v/v) paraformaldehyde in phosphate buffered saline (PBS, pH = 7.4). The brain was removed and post-fixed overnight in 4% (v/v) paraformaldehyde followed by dehydration with 30% (w/v) sucrose solution in PBS at 4 °C. Frozen sections were cut on a cryostat (Thermo fisher, USA). […] To visualise neurons, microglial and astrocytes, sections were first stained with antibodies against Tuj1 (1:500), Iba1 (1:300) and GFAP (1:300), respectively, and then with donkey anti-mouse Alexa Fluor®555 (1:1000 dilution) secondary antibody. DAPI staining was performed to visualise cell nuclei.

[2] = Blood count after intravenous injection; type: in vivo, ICR mice; settings: mouse, in vivo, iv
Source text: Supplementary Table 2. Blood count following intravenous injection of FAM-CGY NLCs in free form and complexed with siRNA
Samples WBC RBC HGB HCT MCV MCH MCHC PLT
WBC: white blood cell; RBC: red blood cell count; HGB: haemoglobin; HCT: haematocrit; MCV: mean corpuscular volume; MCH: mean corpuscular haemoglobin; MCHC: mean corpuscular
significance (*p < 0.05). The results are mean ± s.d. (n = 3 animals per group). The experiment was repeated twice with identical results. The siRNA represent BACE-1-specific siRNA. The
final concentration of the peptide conjugate was 10 µM and that of siRNA was 48 nM, based on blood volume calculation equivalent to 6% of the body weight. LPS = lipopolysaccharide.

hCMEC/D3 cells = test: Uptake with internalisation inhibitors; settings: 37 °C
Protocol: The medium was then removed and replaced with a fresh medium containing NLCs and the corresponding inhibitor. After 8 h of incubation at 37 °C, cells were washed three times with cell medium and analysed by FACS. Cell viability at the end of each experiment was >90% as determined by Trypan Blue exclusion test. The following inhibitors were used: 2-deoxy-D-glucose (1 mM)/sodium azide (1 mM) as energy-dependent inhibitors, worthmanin (10 μM) as macropinocytosis inhibitor, chloropromazine (30 μM) as clathrin-dependent endocytosis inhibitor, N-ethylmaleimide (5 μM) as caveolae-dependent endocytosis and transcytosis inhibitor and indomethacin (200 μM) as caveolae-dependent endocytosis inhibitor.

Iba-1 = test: ELISA of Iba-1 in hippocampus; type: in vivo, ICR mice; settings: Ave.

Structure (SMILES): CC[C@H](C)[C@H](NC(=O)[C@H](CC(N)=O)NC(=O)[C@H](Cc1c[nH]cn1)NC(=O)[C@@H](NC(=O)[C@@H]1CCCN1C(=O)[C@H](CCCNC(=N)N)NC(=O)[C@H](Cc1ccc(O)cc1)NC(=O)CNC(=O)[C@H](CS)NC(=O)c1ccc2c(c1)C(=O)OC21c2ccc(O)cc2Oc2cc(O)ccc21)C(C)C)C(=O)N[C@@H](CCCNC(=N)N)C(=O)NCC(=O)N[C@@H](Cc1c[nH]cn1)C(=O)N[C@@H](Cc1c[nH]c2ccccc12)C(=O)N[C@@H](C)C(=O)N1CCC[C@H]1C(=O)NCC(=O)O [FAM-CGY] (5FAM-CGYRPVHNIRGHWAPG-OH)
- association with brain parenchymal cells [1]: neurons and microglial cells, but not with astrocytes
- WBC [2]: 4.32±0.53 (×109)L-1
- effect on blood count [2]: no effect on blood count
- Mean flouresence (%), uptake vs Control (no inhibitor) (hCMEC/D3 cells; CPZ (chloropromazine 30 μM), 8 h, replicate 1): 50.26%
- Mean flouresence (%), uptake vs Control (no inhibitor) (hCMEC/D3 cells; CPZ (chloropromazine 30 μM), 8 h, replicate 2): 42.26%
- Mean flouresence (%), uptake vs Control (no inhibitor) (hCMEC/D3 cells; CPZ (chloropromazine 30 μM), 8 h, replicate 3): 56.45%
- Mean flouresence (%), uptake vs Control (no inhibitor) (hCMEC/D3 cells; DOG+NaN3 (1 mM/1 mM), 8 h, replicate 2): 62.26%
- Mean flouresence (%), uptake vs Control (no inhibitor) (hCMEC/D3 cells; DOG+NaN3 (1 mM/1 mM), 8 h, replicate 3): 36.09%
- Mean flouresence (%), uptake vs Control (no inhibitor) (hCMEC/D3 cells; DOG+NaN3 (2-deoxy-D-glucose 1 mM/sodium azide 1 mM), 8 h, replicate 1): 44.27%
- Mean flouresence (%), uptake vs Control (no inhibitor) (hCMEC/D3 cells; IMC (indomethacin 200 μM), 1 h pre-treatment + 8 h, FACS, FAM-CGY NLC 5 µM or Texas Red-transferrin 5 µg per well, replicate 1): 66.27%
- Mean flouresence (%), uptake vs Control (no inhibitor) (hCMEC/D3 cells; IMC (indomethacin 200 μM), 8 h, replicate 2): 72.37%
- Mean flouresence (%), uptake vs Control (no inhibitor) (hCMEC/D3 cells; IMC (indomethacin 200 μM), 8 h, replicate 3): 72.43%
- Mean flouresence (%), uptake vs Control (no inhibitor) (hCMEC/D3 cells; NEM (N-ethylmaleimide 5 μM), 8 h, replicate 1): 56.24%
- Mean flouresence (%), uptake vs Control (no inhibitor) (hCMEC/D3 cells; NEM (N-ethylmaleimide 5 μM), 8 h, replicate 2): 70.26%
- Mean flouresence (%), uptake vs Control (no inhibitor) (hCMEC/D3 cells; NEM (N-ethylmaleimide 5 μM), 8 h, replicate 3): 66.59%
- Mean flouresence (%), uptake vs Control (no inhibitor) (hCMEC/D3 cells; WOR (worthmanin 10 μM), 8 h, replicate 1): 73.57%
- Mean flouresence (%), uptake vs Control (no inhibitor) (hCMEC/D3 cells; WOR (worthmanin 10 μM), 8 h, replicate 2): 75.56%
- Mean flouresence (%), uptake vs Control (no inhibitor) (hCMEC/D3 cells; WOR (worthmanin 10 μM), 8 h, replicate 3): 60.92%
- Iba-1 in hippocampus (Figure 6h) (Iba-1; 4 h after i.v.): 0.93
- Iba-1 in hippocampus (Figure 6h) (Iba-1; 24 h after i.v. (LPS 24 h)): 1.02
- Iba-1 in hippocampus (Figure 6h) (Iba-1; 72 h after i.v.): 0.96
